PubChem BioAssay (NCI)
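Protocol summary: plate cells (96-well), add compound at 5 concentrations, incubate 48 h, interpolate endpoints linearly. GI50 marks 50% less growth. TGI is the concentration that stops growth completely.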

Tests used:
Assay in all cases: growth of human tumour cells (NCI), 48 h
786-0 renal = system: 786-0 renal
A498 renal = system: A498 renal
A549 NSCLC = system: A549 NSCLC
ACHN renal = system: ACHN renal
BT-549 breast = system: BT-549 breast
CAKI-1 renal = system: CAKI-1 renal
CCRF-CEM leukemia = system: CCRF-CEM leukemia
COLO 205 colon = system: COLO 205 colon
DU-145 prostate = system: DU-145 prostate
EKVX NSCLC = system: EKVX NSCLC
HCC-2998 colon = system: HCC-2998 colon
HCT-116 colon = system: HCT-116 colon
HCT-15 colon = system: HCT-15 colon
HL-60(TB) leukemia = system: HL-60(TB) leukemia
HOP-62 NSCLC = system: HOP-62 NSCLC
HOP-92 NSCLC = system: HOP-92 NSCLC
HS 578T breast = system: HS 578T breast
HT29 colon = system: HT29 colon
IGROV1 ovarian = system: IGROV1 ovarian
K-562 leukemia = system: K-562 leukemia
KM12 colon = system: KM12 colon
LOX IMVI melanoma = system: LOX IMVI melanoma
M14 melanoma = system: M14 melanoma
MALME-3M melanoma = system: MALME-3M melanoma
MCF7 breast = system: MCF7 breast
MDA-MB-231 breast = system: MDA-MB-231 breast
MDA-MB-435 = system: MDA-MB-435
MDA-N = system: MDA-N
MOLT-4 leukemia = system: MOLT-4 leukemia
NCI-H226 lung = system: NCI-H226 lung
NCI-H23 lung = system: NCI-H23 lung
NCI-H460 lung = system: NCI-H460 lung
NCI-H522 lung = system: NCI-H522 lung
NCI/ADR-RES ovarian = system: NCI/ADR-RES ovarian
OVCAR-3 ovarian = system: OVCAR-3 ovarian
OVCAR-4 ovarian = system: OVCAR-4 ovarian
OVCAR-5 ovarian = system: OVCAR-5 ovarian
OVCAR-8 ovarian = system: OVCAR-8 ovarian
PC-3 prostate = system: PC-3 prostate
RPMI-8226 leukemia = system: RPMI-8226 leukemia
RXF 393 renal = system: RXF 393 renal
SF-268 CNS = system: SF-268 CNS
SF-295 CNS = system: SF-295 CNS
SF-539 CNS = system: SF-539 CNS
SK-MEL-2 melanoma = system: SK-MEL-2 melanoma
SK-MEL-28 melanoma = system: SK-MEL-28 melanoma
SK-MEL-5 melanoma = system: SK-MEL-5 melanoma
SK-OV-3 ovarian = system: SK-OV-3 ovarian
SN12C renal = system: SN12C renal
SNB-19 CNS = system: SNB-19 CNS
SNB-75 CNS = system: SNB-75 CNS
SR leukemia = system: SR leukemia
SW-620 colon = system: SW-620 colon
T-47D breast = system: T-47D breast
TK-10 renal = system: TK-10 renal
U251 CNS = system: U251 CNS
UACC-257 melanoma = system: UACC-257 melanoma
UACC-62 melanoma = system: UACC-62 melanoma
UO-31 renal = system: UO-31 renal

C=C(Cl)C(Cl)(CBr)CCCC(C)(C)Cl (stereo not given)
TGI (786-0 renal): 18 µM | TGI (A498 renal): 33.9 µM | TGI (A549 NSCLC): 32.1 µM | TGI (ACHN renal): 19.6 µM | TGI (BT-549 breast): > 100 µM | TGI (CAKI-1 renal): 3.8 µM | TGI (CCRF-CEM leukemia): > 62.3 µM | TGI (COLO 205 colon): 20.8 µM | TGI (DU-145 prostate): 23.5 µM | TGI (EKVX NSCLC): 32.6 µM | TGI (HCC-2998 colon): 29.5 µM | TGI (HCT-116 colon): 30.8 µM | TGI (HCT-15 colon): 70.8 µM | TGI (HL-60(TB) leukemia): 3.22 µM | TGI (HOP-62 NSCLC): 9.16 µM | TGI (HOP-92 NSCLC): 6.33 µM | TGI (HS 578T breast): 12.7 µM | TGI (HT29 colon): 4.28 µM | TGI (IGROV1 ovarian): > 75.3 µM | TGI (K-562 leukemia): > 66.8 µM | TGI (KM12 colon): 3.6 µM | TGI (LOX IMVI melanoma): 40.9 µM | TGI (M14 melanoma): > 100 µM | TGI (MALME-3M melanoma): > 55.1 µM | TGI (MCF7 breast): 20.2 µM | TGI (MDA-MB-231 breast): > 59 µM | TGI (MDA-MB-435): > 73.3 µM | TGI (MDA-N): > 79.5 µM | TGI (MOLT-4 leukemia): > 100 µM | TGI (NCI-H226 lung): > 100 µM | TGI (NCI-H23 lung): > 100 µM | TGI (NCI-H460 lung): 17.7 µM | TGI (NCI-H522 lung): 28.1 µM | TGI (NCI/ADR-RES ovarian): > 74.1 µM | TGI (OVCAR-3 ovarian): 6.51 µM | TGI (OVCAR-4 ovarian): 17 µM | TGI (OVCAR-5 ovarian): 33 µM | TGI (OVCAR-8 ovarian): 52.6 µM | TGI (PC-3 prostate): 9.36 µM | TGI (RPMI-8226 leukemia): 4.03 µM | TGI (RXF 393 renal): > 100 µM | TGI (SF-268 CNS): 38.3 µM | TGI (SF-295 CNS): 19.8 µM | TGI (SF-539 CNS): 4.93 µM | TGI (SK-MEL-2 melanoma): 32.3 µM | TGI (SK-MEL-28 melanoma): 25.4 µM | TGI (SK-MEL-5 melanoma): > 90.8 µM | TGI (SK-OV-3 ovarian): > 100 µM | TGI (SN12C renal): > 100 µM | TGI (SNB-19 CNS): 30.1 µM | TGI (SNB-75 CNS): 37.6 µM | TGI (SR leukemia): > 100 µM | TGI (SW-620 colon): 41.4 µM | TGI (T-47D breast): 4.15 µM | TGI (TK-10 renal): 4.54 µM | TGI (U251 CNS): 4.16 µM | TGI (UACC-257 melanoma): 13.8 µM | TGI (UACC-62 melanoma): 42.3 µM | TGI (UO-31 renal): 29.3 µM

Clc1ccc(COc2ccccc2/C=N/c2c(-c3ccco3)nc3ccccn23)c(Cl)c1
TGI (786-0 renal): 75.9 µM | TGI (A498 renal): > 100 µM | TGI (A549 NSCLC): > 100 µM | TGI (ACHN renal): > 100 µM | TGI (BT-549 breast): 89.6 µM | TGI (CAKI-1 renal): > 100 µM | TGI (CCRF-CEM leukemia): 63.7 µM | TGI (COLO 205 colon): > 100 µM | TGI (DU-145 prostate): 76 µM | TGI (EKVX NSCLC): > 100 µM | TGI (HCC-2998 colon): > 100 µM | TGI (HCT-116 colon): 36.7 µM | TGI (HCT-15 colon): 88.3 µM | TGI (HL-60(TB) leukemia): 71.2 µM | TGI (HOP-62 NSCLC): > 100 µM | TGI (HOP-92 NSCLC): 57.4 µM | TGI (HS 578T breast): > 100 µM | TGI (HT29 colon): > 100 µM | TGI (IGROV1 ovarian): > 100 µM | TGI (K-562 leukemia): > 100 µM | TGI (KM12 colon): > 100 µM | TGI (LOX IMVI melanoma): 35.5 µM | TGI (M14 melanoma): 74.1 µM | TGI (MALME-3M melanoma): > 100 µM | TGI (MCF7 breast): 62 µM | TGI (MDA-MB-231 breast): 52.6 µM | TGI (MDA-MB-435): 49.1 µM | TGI (MDA-N): 70.2 µM | TGI (MOLT-4 leukemia): > 100 µM | TGI (NCI-H226 lung): > 100 µM | TGI (NCI-H23 lung): > 100 µM | TGI (NCI-H460 lung): > 100 µM | TGI (NCI-H522 lung): > 100 µM | TGI (NCI/ADR-RES ovarian): 96.1 µM | TGI (OVCAR-3 ovarian): > 100 µM | TGI (OVCAR-4 ovarian): > 100 µM | TGI (OVCAR-5 ovarian): > 100 µM | TGI (OVCAR-8 ovarian): > 100 µM | TGI (PC-3 prostate): > 100 µM | TGI (RPMI-8226 leukemia): 86.2 µM | TGI (RXF 393 renal): 56.3 µM | TGI (SF-268 CNS): > 100 µM | TGI (SF-295 CNS): > 100 µM | TGI (SF-539 CNS): 47.3 µM | TGI (SK-MEL-2 melanoma): 42.8 µM | TGI (SK-MEL-28 melanoma): > 100 µM | TGI (SK-MEL-5 melanoma): 32 µM | TGI (SK-OV-3 ovarian): > 100 µM | TGI (SN12C renal): 66.6 µM | TGI (SNB-19 CNS): > 100 µM | TGI (SNB-75 CNS): 69.7 µM | TGI (SR leukemia): 49.2 µM | TGI (SW-620 colon): > 100 µM | TGI (T-47D breast): > 100 µM | TGI (TK-10 renal): 88.6 µM | TGI (U251 CNS): > 100 µM | TGI (UACC-257 melanoma): > 100 µM | TGI (UACC-62 melanoma): > 100 µM | TGI (UO-31 renal): > 100 µM

Cc1nc2ccccc2nc1NNc1ccccc1
TGI (786-0 renal): > 92.1 µM | TGI (A498 renal): > 94.5 µM | TGI (A549 NSCLC): > 95.9 µM | TGI (ACHN renal): 85.9 µM | TGI (BT-549 breast): 70 µM | TGI (CAKI-1 renal): > 100 µM | TGI (CCRF-CEM leukemia): 78.7 µM | TGI (COLO 205 colon): 1.03 µM | TGI (DU-145 prostate): > 86.1 µM | TGI (EKVX NSCLC): 68.2 µM | TGI (HCC-2998 colon): > 100 µM | TGI (HCT-116 colon): > 100 µM | TGI (HCT-15 colon): > 82.6 µM | TGI (HL-60(TB) leukemia): 58.8 µM | TGI (HOP-62 NSCLC): 86.6 µM | TGI (HOP-92 NSCLC): 57 µM | TGI (HS 578T breast): > 95.1 µM | TGI (HT29 colon): 18.7 µM | TGI (IGROV1 ovarian): 73.3 µM | TGI (K-562 leukemia): 74.5 µM | TGI (KM12 colon): 63.4 µM | TGI (LOX IMVI melanoma): 70.7 µM | TGI (M14 melanoma): 64.8 µM | TGI (MALME-3M melanoma): 69.5 µM | TGI (MCF7 breast): > 100 µM | TGI (MDA-MB-231 breast): 70.7 µM | TGI (MDA-MB-435): 41.7 µM | TGI (MDA-N): 48.9 µM | GI50 (MOLT-4 leukemia): 12.1 µM | TGI (MOLT-4 leukemia): 40.7 µM | TGI (NCI-H226 lung): 85.7 µM | TGI (NCI-H23 lung): 77.2 µM | TGI (NCI-H460 lung): > 88.7 µM | TGI (NCI-H522 lung): > 88.4 µM | TGI (NCI/ADR-RES ovarian): 75.8 µM | TGI (OVCAR-3 ovarian): 70.4 µM | TGI (OVCAR-4 ovarian): > 87.8 µM | TGI (OVCAR-5 ovarian): > 84.4 µM | TGI (OVCAR-8 ovarian): 77.8 µM | TGI (PC-3 prostate): > 84.4 µM | TGI (RPMI-8226 leukemia): 41 µM | GI50 (RXF 393 renal): 18.6 µM | TGI (RXF 393 renal): 78.7 µM | TGI (SF-268 CNS): > 100 µM | TGI (SF-295 CNS): > 93.6 µM | TGI (SF-539 CNS): > 96.2 µM | TGI (SK-MEL-2 melanoma): > 80.8 µM | TGI (SK-MEL-28 melanoma): > 96.7 µM | TGI (SK-MEL-5 melanoma): 31.5 µM | GI50 (SK-OV-3 ovarian): 24.8 µM | TGI (SK-OV-3 ovarian): > 100 µM | TGI (SN12C renal): 72.9 µM | TGI (SNB-19 CNS): > 100 µM | TGI (SNB-75 CNS): > 84.9 µM | TGI (SR leukemia): 74.5 µM | TGI (SW-620 colon): > 74.9 µM | TGI (T-47D breast): 46.9 µM | TGI (TK-10 renal): 98.7 µM | TGI (U251 CNS): > 93.5 µM | TGI (UACC-257 melanoma): 74.3 µM | TGI (UACC-62 melanoma): 43.4 µM | TGI (UO-31 renal): > 86.5 µM
